Experimental data reported in patent US20210163412A1, “NOVEL SULFONEUREA COMPOUNDS” (Inflazome Limited, priority 2018, published 2021).

Key:
NLRP3 [1] = molecular target: T1, NLRP3 (Homo sapiens, UniProt Q96P20); test: Human whole blood IL-1β release assay; assay type: cell-based; parameters: Human whole blood in Li-heparin tubes was obtained from healthy donors; from tissue; host or cells: human whole blood from healthy donors; conditions: LPS 1 μg/ml, nigericin, IL-1β in supernatant (AlphaLisa), read-out: HWB IC50
T1 sequence (Q96P20 whole entry): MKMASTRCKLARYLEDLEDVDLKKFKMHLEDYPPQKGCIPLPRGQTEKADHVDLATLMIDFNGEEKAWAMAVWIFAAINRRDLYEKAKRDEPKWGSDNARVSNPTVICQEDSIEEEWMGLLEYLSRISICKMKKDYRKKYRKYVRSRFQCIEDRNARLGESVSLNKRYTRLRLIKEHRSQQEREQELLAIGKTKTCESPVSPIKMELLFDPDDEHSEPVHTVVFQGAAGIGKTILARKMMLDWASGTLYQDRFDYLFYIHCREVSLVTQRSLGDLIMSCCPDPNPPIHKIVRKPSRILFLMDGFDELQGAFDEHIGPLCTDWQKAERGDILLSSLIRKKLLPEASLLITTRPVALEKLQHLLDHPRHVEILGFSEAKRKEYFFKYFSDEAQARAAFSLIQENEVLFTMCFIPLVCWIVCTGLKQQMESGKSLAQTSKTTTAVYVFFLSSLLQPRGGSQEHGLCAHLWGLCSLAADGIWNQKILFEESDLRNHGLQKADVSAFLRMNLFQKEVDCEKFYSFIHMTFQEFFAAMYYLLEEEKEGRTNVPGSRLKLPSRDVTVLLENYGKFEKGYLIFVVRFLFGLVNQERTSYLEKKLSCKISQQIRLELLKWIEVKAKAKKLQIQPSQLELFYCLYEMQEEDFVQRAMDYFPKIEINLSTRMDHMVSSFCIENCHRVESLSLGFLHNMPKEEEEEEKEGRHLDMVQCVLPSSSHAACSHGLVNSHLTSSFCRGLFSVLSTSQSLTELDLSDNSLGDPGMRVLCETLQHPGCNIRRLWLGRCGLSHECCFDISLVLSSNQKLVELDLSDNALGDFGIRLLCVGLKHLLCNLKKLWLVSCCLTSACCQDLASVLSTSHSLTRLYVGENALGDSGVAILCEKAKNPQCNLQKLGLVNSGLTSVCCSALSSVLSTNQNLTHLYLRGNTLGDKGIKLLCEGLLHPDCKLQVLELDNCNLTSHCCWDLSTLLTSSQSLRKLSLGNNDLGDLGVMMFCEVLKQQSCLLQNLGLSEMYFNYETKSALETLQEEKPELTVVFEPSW
Procedure: For systemic delivery, the ability to inhibit NLRP3 when the compounds are present within the bloodstream is of great importance. For this reason, the NLRP3 inhibitory activity of a number of compounds in human whole blood was investigated in accordance with the following protocol.
Human whole blood in Li-heparin tubes was obtained from healthy donors from a volunteer donor panel. • 1. […] Incubate for 3 hrs at 37° C., 5% CO2 • 4. Add 1 μl nigericin (Sigma #N7143) ([…]) to all wells • 5. Incubate for 1 hr at 37° C., 5% CO2 • 6. At the end of the incubation period, spin plates at 300×g for 5 mins to pellet cells and remove 20 μl of supernatant and add to 96-well v-bottom plates for IL-1β analysis (note: these plates containing the supernatants can be stored at −80° C. to be analysed at a later date) • 7. IL-1β was measured according to the manufacturer protocol (Perkin Elmer-AlphaLisa IL-1 Kit AL220F-5000) • 8. IC50 data is fitted to a non-linear regression equation (log inhibitor vs response-variable slope 4-parameters)

NLRP3 [2] = molecular target: T1, NLRP3; test: THP-1 cells pyroptosis assay; assay type: cell-based; parameters: Seed THP-1 cells (25,000 cells/well) containing 1.0 μg/ml LPS; host or cells: THP-1 cells; conditions: LPS 1 μg/ml, nigericin 5 μM, resazurin readout
Procedure: The cells were routinely passaged and grown to confluency (˜10^6 cells/ml). On the day of the experiment, THP-1 cells were harvested and resuspended into RPMI medium (without FBS). The cells were then counted and viability (>90%) checked by Trypan blue (Sigma #T8154). […] To this diluted cell solution was added LPS (Sigma #L4524) to give a 1 μg/ml Final Assay Concentration (FAC). 40 μl of the final preparation was aliquoted into each well of a 96-well plate. The plate thus prepared was used for compound screening.
The following method step-by-step assay was followed for compound screening. • 1. […] Incubate for 3 hrs at 37° C., 5% CO2 • 4. Add 5 μl nigericin (Sigma #N7143) (FAC 5 μM) to all wells • 5. Incubate for 1 hr at 37° C., 5% CO2 • 6. At the end of the incubation period, spin plates at 300×g for 3 mins and remove supernatant • 7. Then add 50 μl of resazurin (Sigma #R7017) (FAC 100 μM resazurin in RPMI medium without FBS) and incubate plates for a further 1-2 hrs at 37° C. and 5% CO2 • 8. […] IC50 data is fitted to a non-linear regression equation (log inhibitor vs response-variable slope 4-parameters)

| SMILES | IC50 (NLRP3 [1]) [nM] | IC50 (NLRP3 [2]) [nM] |
| --- | --- | --- |
| CN1CCC(Oc2cc(-c3cc(F)cc(C4CCCC4)c3NC(=O)NS(C)(=O)=O)ccn2)CC1 [Example 41] | 1000 to 2000 | ≤ 250 |
| C=CCN1CCC(Oc2cc(-c3ccc4c(c3NC(=O)NS(=O)(=O)CC=C)CCC4)ccn2)CC1 [Example 59, N-((5-(2-((1-Allylpiperidin-4-yl)oxy)pyridin-4-yl)-2,3-dihydro-1H-inden-4-yl)carbamoyl)prop-2-ene-1-sulfonamide] | 1000 to 2000 | ≤ 250 |
| CS(=O)(=O)NC(=O)Nc1c(-c2ccnc(OC3CCOCC3)c2)ccc2c1CCC2 [Example 33] | 1000 to 2000 | 250 to 500 |
| CS(=O)(=O)NC(=O)Nc1c(-c2ccnc(O[C@H]3CC[C@@](C)(O)CC3)c2)ccc2c1CCC2 [Example 4] | 250 to 500 | ≤ 250 |
| CC(C)n1ccc(S(=O)(=O)NC(=O)Nc2c(-c3ccnc(Oc4ccccc4)c3)ccc3c2CCC3)n1 [Example 77] | 5000 to 10000 | ≤ 250 |
| CC(C)n1ccc(S(=O)(=O)NC(=O)Nc2c(-c3ccnc(C4CC4)c3)ccc3c2CCC3)n1 [Example 69] | 500 to 1000 | ≤ 250 |
| CN1CCC(Oc2cc(-c3cc(F)cc(-c4ccccc4)c3NC(=O)NS(C)(=O)=O)ccn2)CC1 [Example 42] | 1000 to 2000 | 1000 to 2000 |
| CC(C)n1ccc(S(=O)(=O)NC(=O)Nc2c(-c3ccnc(OC4CCN(C)CC4)c3)ccc3c2CCC3)n1 [Example 68, i-Isopropyl-N-((5-(2-((1-methylpiperidin-4-yl)oxy)pyridin-4-yl)-2,3-dihydro-1H-inden-4-yl)carbamoyl)-1H-pyrazole-3-sulfonamide] | 250 to 500 | ≤ 250 |
| CN1CCC(COc2cc(-c3ccc4c(c3NC(=O)NS(C)(=O)=O)CCC4)ccn2)CC1 [Example 27] | 500 to 1000 | 1000 to 2000 |
| CC(C)c1cc(F)cc(-c2ccnc(N(C)C)c2)c1NC(=O)NS(=O)(=O)c1ccn(C(C)C)n1 [comp ex 3, reference compound] |  | 2000 to 5000 |
| CN(C)CC(C)(C)n1ccc(S(=O)(=O)NC(=O)Nc2c(-c3ccnc(OC4CC4)c3)ccc3c2CCO3)n1 [Example 64, N-((5-(2-Cyclopropoxypyridin-4-yl)-2,3-dihydrobenzofuran-4-yl)carbamoyl)-1-(1-(dimethylamino)-2-methylpropan-2-yl)-1H-pyrazole-3-sulfonamide] | 250 to 500 | ≤ 250 |
| Cc1cc2c(c(NC(=O)NS(C)(=O)=O)c1-c1ccnc(OCC3CCCN(C)C3)c1)CCC2 (stereo not drawn) [Example 47] | ≤ 250 | ≤ 250 |
| Cc1c(-c2ccc3c(c2NC(=O)NS(C)(=O)=O)CCC3)ccnc1OC1CCN(C)CC1 [Example 15] | 250 to 500 | 250 to 500 |
| Cc1cc2c(c(NC(=O)NS(C)(=O)=O)c1-c1ccnc(OC3CCOC3)c1)CCC2 (stereo not drawn) [Example 53] | 250 to 500 | ≤ 250 |
| CC(C)n1ccc(S(=O)(=O)NC(=O)Nc2c(-c3ccnc(OC4CCN(C)C4)c3)ccc3c2CCC3)n1 (stereo not drawn) [Example 76] |  | 500 to 1000 |
| CC(C)c1cc(F)cc(-c2ccnc(OC3CCN(C)CC3)c2)c1NC(=O)NS(C)(=O)=O [Example 43] | ≤ 250 | 500 to 1000 |
| CO[C@H]1CC[C@H](Oc2cc(-c3c(C)cc4c(c3NC(=O)NS(C)(=O)=O)CCC4)ccn2)CC1 [Example 54] | 500 to 1000 | ≤ 250 |
| Cc1cc2c(c(NC(=O)NS(C)(=N)=O)c1-c1ccnc(OC3CCN(C)CC3)c1)CCC2 (stereo not drawn) [Example 80, N-((6-Methyl-5-(2-((1-methylpiperidin-4-yl)oxy)pyridin-4-yl)-2,3-dihydro-1H-inden-4-yl)carbamoyl)methanesulfonimidamide] | 500 to 1000 | ≤ 250 |
| CO[C@H]1CC[C@@H](Oc2cc(-c3ccc4c(c3NC(=O)NS(C)(=O)=O)CCC4)ccn2)CC1 [Example 1, N-((5-(2-(((1s,4s)-4-Methoxycyclohexyl)oxy)pyridin-4-yl)-2,3-dihydro-1H-inden-4-yl)carbamoyl)methanesulfonamide] | 1000 to 2000 | ≤ 250 |
| O=C(Nc1c(-c2ccnc(OC3CC3)c2)ccc2c1CCO2)NS(=O)(=O)c1ccn(C2CCC2)n1 [Example 67] | 500 to 1000 | ≤ 250 |

| SMILES | IC50 (NLRP3 [1]) [nM] | IC50 (NLRP3 [2]) [nM] |
| --- | --- | --- |
| CO[C@H]1CC[C@@H](Oc2cc(-c3c(C)cc4c(c3NC(=O)NS(C)(=O)=O)CCC4)ccn2)CC1 [Example 55] | 500 to 1000 | ≤ 250 |
| CS(=O)(=O)NC(=O)Nc1c(-c2ccnc(OC3CCN(C4CC4)CC3)c2)ccc2c1CCC2 [Example 22] | 2000 to 5000 | ≤ 250 |
| CC(C)(CN1CCC1)n1ccc(S(=O)(=O)NC(=O)Nc2c(-c3ccnc(OC4CC4)c3)ccc3c2CCC3)n1 [Example 65] | 250 to 500 | ≤ 250 |
| CC(C)n1ccc(S(=O)(=O)NC(=O)Nc2c(-c3ccnc(OC4CCOC4)c3)ccc3c2CCC3)n1 (stereo not drawn) [Example 70] | 500 to 1000 | ≤ 250 |
| CS(=O)(=O)NC(=O)Nc1c(-c2ccnc(OC3CCN(Cc4ccccc4)CC3)c2)ccc2c1CCC2 [Example 19] | 1000 to 2000 | ≤ 250 |
| CN1CCC(Oc2cc(-c3cc(F)cc(C4CCCCC4)c3NC(=O)NS(C)(=O)=O)ccn2)CC1 [Example 39] | 1000 to 2000 | ≤ 250 |
| CN(C)CC(C)(C)n1ccc(S(=O)(=O)NC(=O)Nc2c(-c3ccnc(OC4CC4)c3)ccc3c2CCC3)n1 [Example 66] | 250 to 500 | ≤ 250 |
| Cc1cc2c(c(NC(=O)NS(C)(=O)=O)c1-c1ccnc(O[C@H]3CC[C@H](N(C)C)CC3)c1)CCC2 [Example 46] | ≤ 250 | ≤ 250 |
| O=C(Nc1c(-c2ccnc(OC3CC3)c2)ccc2c1CCC2)NS(=O)(=O)c1ccn(C2CC2)n1 [Example 72] | 1000 to 2000 | ≤ 250 |
| CN1CCC(Oc2cc(-c3ccc4c(c3NC(=O)NS(C)(=O)=O)CCC4)ccn2)CC1 [Example 35] | ≤ 250 | ≤ 250 |
| COc1cc(-c2cc(F)cc(C(C)C)c2NC(=O)NS(=O)(=O)c2ccn(C(C)C)n2)cc(C)n1 [comp ex 2, reference compound] |  | 2000 to 5000 |
| Cc1cc2c(c(NC(=O)NS(=N)(=O)c3ccccc3)c1-c1ccnc(OC3CCN(C)CC3)c1)CCC2 (stereo not drawn) [Example 79, N-((6-Methyl-5-(2-((1-methylpiperidin-4-yl)oxy)pyridin-4-yl)-2,3-dihydro-1H-inden-4-yl)carbamoyl)benzenesulfonimidamide] | 1000 to 2000 | ≤ 250 |
| CC(C)n1ccc(S(=O)(=O)NC(=O)Nc2c(-c3ccnc(OC4CCCOC4)c3)ccc3c2CCC3)n1 (stereo not drawn) [Example 74] | 1000 to 2000 | ≤ 250 |
| CC(C)n1ccc(S(=O)(=O)NC(=O)Nc2c(-c3ccnc(OC4CCOCC4)c3)ccc3c2CCC3)n1 [Example 73] | 500 to 1000 | ≤ 250 |
| CN(C)C1CCC(Oc2cc(-c3ccc4c(c3NC(=O)NS(C)(=O)=O)CCC4)ccn2)CC1 (stereo not drawn) [Example 29] | ≤ 250 | ≤ 250 |
| CN1CCC(Oc2cc(-c3ccc4c(c3NC(=O)N=S(N)(=O)c3ccccc3)CCC4)ccn2)CC1 (stereo not drawn) [Example 78, N′-((5-(2-((1-Methylpiperidin-4-yl)oxy)pyridin-4-yl)-2,3-dihydro-1H-inden-4-yl)carbamoyl)benzenesulfonimidamide] | 2000 to 5000 | ≤ 250 |
| CC1CC(Oc2cc(-c3ccc4c(c3NC(=O)NS(C)(=O)=O)CCC4)ccn2)CCO1 (stereo not drawn) [Example 8] | 1000 to 2000 | 250 to 500 |
| CC(C)n1ccc(S(=O)(=O)NC(=O)Nc2c(-c3ccnc(OC4CCC4)c3)ccc3c2CCC3)n1 [Example 75] | 1000 to 2000 | ≤ 250 |
| O=C(Nc1c(-c2ccnc(OC3CC3)c2)ccc2c1CCO2)NS(=O)(=O)c1ccn(C2CC2)n1 [Example 71] | 500 to 1000 | ≤ 250 |
